Legend:
Assay in all cases: biochemical
Parameters in all cases: DiscoverX kinase panel, active-site competition binding (KINOMEscan type), percent of control at one concentration
Conditions in all cases: competition binding, percent of control
PIP5K2B = biological target: T1, PIP5K2B (Homo sapiens, UniProt P78356)
T1 construct: gene PIP4K2B
Description: (§1) To investigate the potential therapeutic benefit of inhibiting RIP1, we developed GNE684 or (S)-N-((S)-7-methoxy-1-methyl-2-oxo-2,3,4,5-tetrahydro-1H-pyrido[3,4-b]azepin-3-yl)-5-phenyl-6,7-dihydro-5H-pyrrolo[1,2-b][1,2,4]triazole-2-carboxamide with cross-species potency against RIP1, exquisite kinase selectivity, and favorable pharmacological properties (Fig. 1a–h, S1, Tables S1 and S2, SI file 1). […] (Fig. 1b, S1, and Table S1). […] GNE684 inhibited human RIP1 potently in vitro, and mouse and rat RIP1 with slightly less potency (Fig. 1d). Accordingly, it inhibited TNF-induced necroptosis in human HT-29, mouse L929, or rat H9c2 cells (Fig. 1e). The cellular potency of GNE684 was confirmed in a human whole blood assay using TBZ (TNF, IAP antagonist BV6, and pan-caspase inhibitor zVAD) or LZ (LPS plus zVAD) to trigger necroptosis and the release of IL-1α and IL-1β (Fig. 1f).

GRK3 = GRK3 (Homo sapiens, UniProt P35626)
Sequence of GRK3 (P35626 whole entry): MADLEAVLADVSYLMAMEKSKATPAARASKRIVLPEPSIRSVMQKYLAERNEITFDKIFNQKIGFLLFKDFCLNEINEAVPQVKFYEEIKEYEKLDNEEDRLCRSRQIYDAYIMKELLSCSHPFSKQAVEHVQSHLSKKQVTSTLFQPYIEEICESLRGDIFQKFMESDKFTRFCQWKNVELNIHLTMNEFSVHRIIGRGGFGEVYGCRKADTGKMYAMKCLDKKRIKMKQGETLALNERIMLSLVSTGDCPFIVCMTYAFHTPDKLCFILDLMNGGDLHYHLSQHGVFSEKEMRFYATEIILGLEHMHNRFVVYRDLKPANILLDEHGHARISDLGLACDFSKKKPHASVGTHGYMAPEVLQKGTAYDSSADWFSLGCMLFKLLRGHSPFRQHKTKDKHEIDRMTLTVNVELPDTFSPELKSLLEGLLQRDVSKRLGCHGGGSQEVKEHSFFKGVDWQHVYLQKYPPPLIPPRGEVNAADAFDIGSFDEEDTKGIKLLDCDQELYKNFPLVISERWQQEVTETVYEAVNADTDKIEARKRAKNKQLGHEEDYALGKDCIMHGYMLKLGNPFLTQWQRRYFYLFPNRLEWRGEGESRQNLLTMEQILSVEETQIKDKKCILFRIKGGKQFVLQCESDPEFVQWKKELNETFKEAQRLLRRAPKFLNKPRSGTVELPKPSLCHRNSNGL
Description: as §1

TEC = TEC (Homo sapiens, UniProt P42680)
Description: as §1

EGFR(E746-A750del) = EGFR(E746-A750del) (Homo sapiens, UniProt P00533, DEL746-750)
Description: as §1

MEK4 = biological target: T2, MEK4 (Homo sapiens, UniProt P45985)
T2 construct: gene MAP2K4
T2 sequence (P45985 whole entry): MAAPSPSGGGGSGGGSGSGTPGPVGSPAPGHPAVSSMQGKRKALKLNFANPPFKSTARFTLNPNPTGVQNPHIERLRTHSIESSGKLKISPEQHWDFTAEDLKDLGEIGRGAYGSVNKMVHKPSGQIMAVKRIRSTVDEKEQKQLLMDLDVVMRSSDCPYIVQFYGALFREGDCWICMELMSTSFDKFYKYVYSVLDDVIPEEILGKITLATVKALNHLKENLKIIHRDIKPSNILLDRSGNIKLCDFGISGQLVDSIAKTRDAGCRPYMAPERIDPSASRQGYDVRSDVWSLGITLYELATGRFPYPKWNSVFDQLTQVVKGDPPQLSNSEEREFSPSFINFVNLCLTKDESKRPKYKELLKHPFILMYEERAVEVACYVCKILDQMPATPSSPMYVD
Description: as §1

KIT(V559D) = KIT(V559D) (Homo sapiens, UniProt P10721, V559D)
Sequence of KIT(V559D) (P10721 whole entry V559D): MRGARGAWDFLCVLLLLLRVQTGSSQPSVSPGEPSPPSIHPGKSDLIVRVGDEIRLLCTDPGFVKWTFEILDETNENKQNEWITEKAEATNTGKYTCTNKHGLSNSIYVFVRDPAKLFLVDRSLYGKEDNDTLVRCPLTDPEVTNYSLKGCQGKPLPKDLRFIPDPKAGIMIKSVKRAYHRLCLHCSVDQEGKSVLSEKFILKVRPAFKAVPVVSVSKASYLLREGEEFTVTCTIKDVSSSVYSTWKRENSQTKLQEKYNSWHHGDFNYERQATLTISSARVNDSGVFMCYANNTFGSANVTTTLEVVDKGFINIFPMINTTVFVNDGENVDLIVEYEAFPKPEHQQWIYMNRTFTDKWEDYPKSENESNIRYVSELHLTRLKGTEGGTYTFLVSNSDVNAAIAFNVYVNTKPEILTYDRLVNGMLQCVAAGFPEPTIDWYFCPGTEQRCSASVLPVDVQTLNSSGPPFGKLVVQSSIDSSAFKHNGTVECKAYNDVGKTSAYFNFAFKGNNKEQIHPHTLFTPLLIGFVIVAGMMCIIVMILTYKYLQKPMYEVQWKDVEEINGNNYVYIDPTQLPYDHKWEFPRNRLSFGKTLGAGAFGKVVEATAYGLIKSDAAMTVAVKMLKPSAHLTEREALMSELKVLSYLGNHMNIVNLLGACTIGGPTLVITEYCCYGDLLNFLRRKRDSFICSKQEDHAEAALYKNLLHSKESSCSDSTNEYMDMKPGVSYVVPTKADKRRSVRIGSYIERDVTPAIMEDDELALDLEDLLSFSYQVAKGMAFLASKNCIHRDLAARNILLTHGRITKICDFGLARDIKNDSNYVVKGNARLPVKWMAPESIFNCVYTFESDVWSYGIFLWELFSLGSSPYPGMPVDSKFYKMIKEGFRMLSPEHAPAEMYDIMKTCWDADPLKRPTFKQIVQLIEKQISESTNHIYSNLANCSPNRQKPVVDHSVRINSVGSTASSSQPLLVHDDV
Description: as §1

ACVR2B = ACVR2B (Homo sapiens, UniProt Q13705)
Description: as §1

CLK1 = CLK1 (Homo sapiens, UniProt P49759)
Description: as §1

NEK4 = NEK4 (Homo sapiens, UniProt P51957)
Description: as §1

RIPK4 = RIPK4 (Homo sapiens, UniProt P57078)
Description: as §1

BRAF(V600E) = BRAF(V600E) (Homo sapiens, UniProt P15056, V600E)
Description: as §1

FYN = FYN (Homo sapiens, UniProt P06241)
Description: as §1

GSK3A = GSK3A (Homo sapiens, UniProt P49840)
Sequence of GSK3A (P49840 whole entry): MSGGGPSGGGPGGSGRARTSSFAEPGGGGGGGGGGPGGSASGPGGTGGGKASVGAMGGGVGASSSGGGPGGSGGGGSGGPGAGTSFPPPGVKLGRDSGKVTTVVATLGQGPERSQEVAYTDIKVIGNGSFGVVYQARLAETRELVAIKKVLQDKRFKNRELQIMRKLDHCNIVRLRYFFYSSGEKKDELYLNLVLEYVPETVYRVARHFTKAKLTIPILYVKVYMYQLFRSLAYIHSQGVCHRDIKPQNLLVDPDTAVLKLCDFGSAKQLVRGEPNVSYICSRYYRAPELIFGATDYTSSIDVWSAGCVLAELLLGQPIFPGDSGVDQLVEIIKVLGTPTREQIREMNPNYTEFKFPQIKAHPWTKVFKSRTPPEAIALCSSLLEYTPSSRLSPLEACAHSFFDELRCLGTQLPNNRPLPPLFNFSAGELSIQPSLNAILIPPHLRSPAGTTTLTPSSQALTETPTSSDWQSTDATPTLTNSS
Description: as §1

CSNK1G1 = CSNK1G1 (Homo sapiens, UniProt Q9HCP0)
Description: as §1

NEK6 = NEK6 (Homo sapiens, UniProt Q9HC98)
Sequence of NEK6 (Q9HC98 whole entry): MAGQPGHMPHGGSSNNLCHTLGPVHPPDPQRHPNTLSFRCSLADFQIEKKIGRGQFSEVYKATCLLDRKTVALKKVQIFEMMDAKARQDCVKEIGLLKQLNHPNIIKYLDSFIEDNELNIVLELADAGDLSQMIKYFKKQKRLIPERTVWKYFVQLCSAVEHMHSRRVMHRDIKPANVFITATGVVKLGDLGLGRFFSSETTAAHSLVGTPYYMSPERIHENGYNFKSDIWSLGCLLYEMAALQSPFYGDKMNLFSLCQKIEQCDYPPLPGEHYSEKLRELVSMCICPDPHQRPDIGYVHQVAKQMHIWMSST
Description: as §1

PIM2 = PIM2 (Homo sapiens, UniProt Q9P1W9)
Sequence of PIM2 (Q9P1W9 whole entry): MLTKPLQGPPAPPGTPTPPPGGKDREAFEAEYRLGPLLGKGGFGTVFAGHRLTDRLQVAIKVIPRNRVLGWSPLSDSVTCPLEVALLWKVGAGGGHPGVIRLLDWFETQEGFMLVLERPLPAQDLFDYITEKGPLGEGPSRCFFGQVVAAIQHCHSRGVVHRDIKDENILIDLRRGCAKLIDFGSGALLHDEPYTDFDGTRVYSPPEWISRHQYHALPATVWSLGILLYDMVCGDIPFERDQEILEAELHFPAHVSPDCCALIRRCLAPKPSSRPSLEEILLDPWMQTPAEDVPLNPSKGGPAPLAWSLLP
Description: as §1

DCAMKL2 = biological target: T3, DCAMKL2 (Homo sapiens, UniProt Q8N568)
T3 construct: gene DCLK2
T3 sequence (Q8N568 whole entry): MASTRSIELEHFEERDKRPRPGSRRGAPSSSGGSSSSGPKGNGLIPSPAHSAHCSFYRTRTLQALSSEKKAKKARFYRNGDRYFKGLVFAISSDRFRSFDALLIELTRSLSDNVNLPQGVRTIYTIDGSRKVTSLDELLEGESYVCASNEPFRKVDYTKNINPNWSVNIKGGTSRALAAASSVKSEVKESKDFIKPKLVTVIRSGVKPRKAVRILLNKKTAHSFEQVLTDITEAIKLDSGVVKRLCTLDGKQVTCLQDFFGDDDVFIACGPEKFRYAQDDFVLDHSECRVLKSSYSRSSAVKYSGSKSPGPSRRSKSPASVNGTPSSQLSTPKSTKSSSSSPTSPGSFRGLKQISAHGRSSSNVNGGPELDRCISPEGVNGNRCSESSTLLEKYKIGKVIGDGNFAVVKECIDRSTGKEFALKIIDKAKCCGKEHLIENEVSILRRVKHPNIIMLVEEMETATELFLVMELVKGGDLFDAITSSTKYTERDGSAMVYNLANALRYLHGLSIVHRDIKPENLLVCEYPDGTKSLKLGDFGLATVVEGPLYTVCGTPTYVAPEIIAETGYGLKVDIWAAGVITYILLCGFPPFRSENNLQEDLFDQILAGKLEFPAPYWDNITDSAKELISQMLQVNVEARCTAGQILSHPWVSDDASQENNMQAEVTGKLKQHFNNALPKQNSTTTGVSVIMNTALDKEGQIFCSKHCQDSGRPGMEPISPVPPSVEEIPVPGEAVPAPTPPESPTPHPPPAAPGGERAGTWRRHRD
Description: as §1

RET(M918T) = RET(M918T) (Homo sapiens, UniProt P07949, M918T)
Sequence of RET(M918T) (P07949 whole entry M918T): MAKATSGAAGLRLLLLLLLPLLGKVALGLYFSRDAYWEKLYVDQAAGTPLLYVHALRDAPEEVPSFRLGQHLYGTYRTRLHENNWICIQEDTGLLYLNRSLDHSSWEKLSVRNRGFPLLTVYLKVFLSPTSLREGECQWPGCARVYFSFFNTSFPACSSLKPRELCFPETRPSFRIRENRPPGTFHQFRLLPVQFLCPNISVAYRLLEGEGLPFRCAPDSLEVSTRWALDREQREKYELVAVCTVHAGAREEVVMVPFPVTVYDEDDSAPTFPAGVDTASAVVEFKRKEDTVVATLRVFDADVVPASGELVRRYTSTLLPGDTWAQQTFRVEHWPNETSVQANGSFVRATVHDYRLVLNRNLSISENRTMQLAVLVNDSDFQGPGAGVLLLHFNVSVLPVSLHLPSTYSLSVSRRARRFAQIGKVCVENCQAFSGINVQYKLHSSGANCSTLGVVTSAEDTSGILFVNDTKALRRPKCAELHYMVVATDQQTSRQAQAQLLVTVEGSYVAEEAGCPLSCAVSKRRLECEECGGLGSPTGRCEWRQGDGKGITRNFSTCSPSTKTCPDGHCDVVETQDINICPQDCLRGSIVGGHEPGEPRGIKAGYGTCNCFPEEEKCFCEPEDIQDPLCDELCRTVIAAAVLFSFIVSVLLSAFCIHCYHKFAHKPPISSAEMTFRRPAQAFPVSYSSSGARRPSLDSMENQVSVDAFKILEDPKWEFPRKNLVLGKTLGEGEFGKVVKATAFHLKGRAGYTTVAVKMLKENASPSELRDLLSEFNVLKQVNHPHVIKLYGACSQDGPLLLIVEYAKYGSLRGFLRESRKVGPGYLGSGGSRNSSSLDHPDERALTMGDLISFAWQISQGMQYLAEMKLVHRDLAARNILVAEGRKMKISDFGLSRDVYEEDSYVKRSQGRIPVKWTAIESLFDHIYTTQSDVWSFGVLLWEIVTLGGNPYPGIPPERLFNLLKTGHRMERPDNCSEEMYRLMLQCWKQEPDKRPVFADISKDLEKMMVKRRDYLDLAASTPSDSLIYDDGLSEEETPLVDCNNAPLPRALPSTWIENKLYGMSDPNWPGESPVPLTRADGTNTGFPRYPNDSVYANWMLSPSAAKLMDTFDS
Description: as §1

SRMS = SRMS (Homo sapiens, UniProt Q9H3Y6)
Description: as §1

MAP4K5 = MAP4K5 (Homo sapiens, UniProt Q9Y4K4)
Description: as §1

PCTK2 = biological target: T4, PCTK2 (Homo sapiens, UniProt Q00537)
T4 construct: gene CDK17
Description: as §1

**Q.** Which remaining binding at 10 µM (PIP5K2B) does the source give for `COc1cc2c(cn1)N(C)C(=O)[C@@H](NC(=O)c1nc3n(n1)[C@H](c1ccccc1)CC3)CC2` [GNE684, (S)-N-((S)-7-methoxy-1-methyl-2-oxo-2,3,4,5-tetrahydro-1H-pyrido[3,4-b]azepin-3-yl)-5-phenyl-6,7-dihydro-5H-pyrrolo[1,2-b][1,2,4]triazole-2-carboxamide] here?
**A.** 92%

**Q.** What about the remaining binding at 10 µM (GRK3) of the same compound?
**A.** 100%

**Q.** What about the remaining binding at 10 µM (TEC) of the same compound?
**A.** 100%

**Q.** What about the remaining binding at 10 µM (EGFR(E746-A750del)) of the same compound?
**A.** 94%

**Q.** What about the remaining binding at 10 µM (MEK4) of the same compound?
**A.** 88%

**Q.** What about the remaining binding at 10 µM (KIT(V559D)) of the same compound?
**A.** 100%

**Q.** What about the remaining binding at 10 µM (ACVR2B) of the same compound?
**A.** 94%

**Q.** And the remaining binding at 10 µM (CLK1)?
**A.** 90%

**Q.** And the remaining binding at 10 µM (NEK4)?
**A.** 100%

**Q.** What about the remaining binding at 10 µM (RIPK4) of the same compound?
**A.** 100%

**Q.** And the remaining binding at 10 µM (BRAF(V600E))?
**A.** 100%

**Q.** What about the remaining binding at 10 µM (FYN) of the same compound?
**A.** 100%

**Q.** And the remaining binding at 10 µM (GSK3A)?
**A.** 63%

**Q.** And the remaining binding at 10 µM (CSNK1G1)?
**A.** 91%

**Q.** And the remaining binding at 10 µM (NEK6)?
**A.** 85%

**Q.** What about the remaining binding at 10 µM (PIM2) of the same compound?
**A.** 71%

**Q.** What about the remaining binding at 10 µM (DCAMKL2) of the same compound?
**A.** 95%

**Q.** What about the remaining binding at 10 µM (RET(M918T)) of the same compound?
**A.** 89%

**Q.** And the remaining binding at 10 µM (SRMS)?
**A.** 100%

**Q.** What about the remaining binding at 10 µM (MAP4K5) of the same compound?
**A.** 91%

**Q.** And the remaining binding at 10 µM (PCTK2)?
**A.** 100%
